Tests used:
VIM-2 = VIM-2 (Escherichia coli, UniProt Q5U7L7); assay: MBL inhibition, FC-5 fluorescence assay, VIM-2; assay type: biochemical; conditions: FC-5 cephalosporin substrate, ranges of obtained pIC50, read-out: pIC50 VIM-2 (converted)
In short: (§1)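 Turnover of the fluorogenic cephalosporin FC-5 by each MBL, followed as initial rate of fluorescence increase (ex 380/em 460 nm). Dose-response curves fitted with a variable-slope normalized-response model; 4 intra-plate replicates per concentration.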

NDM-1 = NDM-1 (Klebsiella pneumoniae, UniProt C7C422); assay: MBL inhibition, FC-5 fluorescence assay, NDM-1; assay type: biochemical; conditions: FC-5 cephalosporin substrate, fluorescence; ranges of obtained pIC50; read-out: pIC50 NDM-1 (converted)
In short: as §1

[1] = test system: Acinetobacter baumannii NDM-1; assay: Antibiotic susceptibility testing (MIC), AB NDM-1; assay type: cell-based; conditions: agar or broth dilution (CLSI/EUCAST)
Protocol: (§2) Antibiotic susceptibility testing was performed using the agar or broth dilution method, in line with the Clinical and Laboratory Standards Institute (CLSI) and European Committee on Antimicrobial Susceptibility Testing (EUCAST) requirements.

Escherichia coli NDM-1 = assay: Antibiotic susceptibility testing (MIC), EC NDM-1; assay type: cell-based; conditions: agar or broth dilution (CLSI/EUCAST)
Protocol: as §2

Escherichia coli NDM-7 = assay: Antibiotic susceptibility testing (MIC), EC NDM-7; assay type: cell-based; conditions: agar or broth dilution (CLSI/EUCAST)
Protocol: as §2

VIM-1 = VIM-1 (Pseudomonas aeruginosa, UniProt A0A0F7KYQ8); assay: MBL inhibition, FC-5 fluorescence assay, VIM-1; assay type: biochemical; conditions: FC-5 cephalosporin substrate, ranges of obtained pIC50, read-out: pIC50 VIM-1 (converted)
In short: as §1

IMP-1 = IMP-1 (Serratia marcescens, UniProt P52699); assay: MBL inhibition, FC-5 fluorescence assay, IMP-1; assay type: biochemical; conditions: FC-5 cephalosporin substrate, fluorescence; ranges of obtained pIC50; read-out: pIC50 IMP-1 (converted)
In short: as §1

[2] = Plasma protein binding, equilibrium dialysis, human plasma; assay type: in vitro ADME; conditions: pH 7.4, equilibrium dialysis (RED) 4 hours at 37° C., read-out: Plasma protein binding, fu, Human
Protocol: (§3) The fraction of unbound compound (fu) in plasma from human or other animal species was determined by equilibrium dialysis at 37° C. for 4 hours using the Rapid Equilibrium Dialysis (RED) device (ThermoFisher Scientific). The test compound at a concentration of 10 μM was added to plasma and dialyzed against isotonic phosphate buffer (67 mM, pH 7.4) over 4 hours at 37° C. After dialysis, compound concentrations in buffer and plasma were quantified by LC-MS/MS. In parallel the stability of the compound in plasma was determined by incubating drug-spiked plasma (10 μM) at 37° C. for 4 hours, meanwhile the control plasma sample was kept in the freezer. The concentration of the compound in both samples was quantified by LC-MS/MS (Waters Corp, Milford, MA, USA).

[3] = Plasma protein binding, equilibrium dialysis, mouse plasma; assay type: in vitro ADME; conditions: pH 7.4, equilibrium dialysis (RED) 4 hours at 37° C., read-out: Plasma protein binding, fu, Mouse
Protocol: as §3

[4] = Metabolic stability in mouse hepatocytes; assay type: in vitro ADME; conditions: cryopreserved mouse hepatocytes, 1 μM compound, 37° C., up to 90 min, read-out: Metabolic stability in hepatocytes, in vitro t1/2, Mouse
Protocol: (§4) Metabolic stability assays were performed in cryopreserved human and mouse hepatocytes. The hepatocytes were thawed and added to “Thawing media”, and centrifuged to pellet the hepatocytes. The cell pellet was taken up in Williams medium E (Invitrogen A1217601), the number of cells was calculated and adjusted to 1.0×10^6 cells/mi. The incubation was carried out on a heater-shaker at […], in a 24-well Picoplate (round bottom, PerkinElmer), using an incubation volume of […]. Thus, to obtain a final compound concentration of 1 μM, 0.7 μl of the 1 mM compound stock solution was pipetted to the wells of the plate. Reaction was initiated by adding 700 μl of cell suspension. Samples were incubated at 37° C. for […] and a zero sample was taken, i.e. 100 μl sample was removed to a 96-well plate and the reaction was quenched by adding 100 μl of 100% MeCN containing 50 nM Warfarin as an internal control. Consecutive samples were taken at time-points 5 min, 15 min, 30 min, 60 min, and 90 min. After finishing the experiment, samples were centrifuged at 3000 rpm for 15 min and before analysis by LC-MS/MS (Waters Corp, Milford, MA, USA).

[5] = Metabolic stability in human hepatocytes; assay type: in vitro ADME; conditions: cryopreserved human hepatocytes, 1 μM compound, 37° C., up to 90 min, read-out: Metabolic stability in hepatocytes, in vitro t1/2, Human
Protocol: as §4

Chain of IMP-1 (P52699 19-246, looked up, species assumed): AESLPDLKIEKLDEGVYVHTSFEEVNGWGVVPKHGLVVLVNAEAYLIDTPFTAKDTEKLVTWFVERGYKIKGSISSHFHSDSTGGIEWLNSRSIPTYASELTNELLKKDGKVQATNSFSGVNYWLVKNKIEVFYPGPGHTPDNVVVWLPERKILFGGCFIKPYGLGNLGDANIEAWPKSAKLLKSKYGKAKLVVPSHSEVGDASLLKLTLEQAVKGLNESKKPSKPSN
Chain of NDM-1 (C7C422 29-270, looked up, species assumed): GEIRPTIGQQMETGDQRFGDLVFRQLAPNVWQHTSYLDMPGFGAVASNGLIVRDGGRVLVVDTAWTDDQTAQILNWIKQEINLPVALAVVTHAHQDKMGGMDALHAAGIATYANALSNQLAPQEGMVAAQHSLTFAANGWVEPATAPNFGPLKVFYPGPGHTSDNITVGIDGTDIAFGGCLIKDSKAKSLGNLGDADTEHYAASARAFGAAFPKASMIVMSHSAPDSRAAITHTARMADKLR

fraction unbound at 4 h, 10 μM [2] | fraction unbound at 4 h, 10 μM [3] | half-life at 1 μM [4] [h] | half-life at 1 μM [5] [h] | SMILES | IC50 (VIM-2) [nM] | IC50 (NDM-1) [nM] | MIC values AB NDM-1 [1] | MIC values EC NDM-1 (Escherichia coli NDM-1) | MIC values EC NDM-7 (Escherichia coli NDM-7) | IC50 (VIM-1) [nM] | IC50 (IMP-1) [nM]
0.05 to 0.25 | 0.005 to 0.05 | 2.5 to 6.67 | > 6.67 | CC(Oc1ccc(CN)cc1)c1cccc2c(-c3ccc(CS(C)(=O)=O)c(F)c3)c(C(=O)O)[nH]c12 (stereo not drawn) [IC-92, 7-(1-(4-(Ammoniomethyl)phenoxy)ethyl)-3-(3-fluoro-4-((methylsulfonyl)methyl)phenyl)-1H-indole-2-carboxylate] | 1 to 10 | 1 to 10 |  |  |  | 1 to 10 | 1 to 10
0.05 to 0.25 | 0.05 to 0.25 | < 2.5 | > 6.67 | CC(c1cccc2c(-c3ccc(CS(C)(=O)=O)c(F)c3)c(C(=O)O)[nH]c12)N(C)C(=O)c1ccc(CN)cc1 (stereo not drawn) [IC-97, 7-(1-(4-(Aminomethyl)-N-methylbenzamido)ethyl)-3-(3-fluoro-4-((methylsulfonyl)methyl)phenyl)-1H-indole-2-carboxylic acid] | 1 to 10 | 1 to 10 |  |  |  | > 10 | > 10
0.05 to 0.25 | 0.05 to 0.25 | > 6.67 | > 6.67 | CC(NC(=O)[C@H]1CC[C@H](CN)CC1)c1cccc2c(-c3ccc(CS(C)(=O)=O)c(F)c3)c(C(=O)O)[nH]c12 (mixture of isomers) [IC-99, 7-[1-[[4-(Aminomethyl)cyclohexanecarbonyl]amino]ethyl]-3-[3-fluoro-4-(methylsulfonylmethyl)phenyl]-1H-indole-2-carboxylic acid] | < 0.1 | 1 to 10 |  |  |  | > 10 | > 10
0.005 to 0.05 | 0.05 to 0.25 | < 2.5 | > 6.67 | C[C@H](OCc1ccc(CN)cc1)c1cccc2c(-c3ccc(CS(C)(=O)=O)c(Cl)c3)c(C(=O)O)[nH]c12 (single isomer, unassigned) [IC-87] | 0.1 to 1 | < 0.1 |  |  |  | 1 to 10 | 1 to 10
0.05 to 0.25 | 0.005 to 0.05 | > 6.67 | > 6.67 | CC(OC(=O)N1CCC(CN)CC1)c1cccc2c(-c3ccc(CS(C)(=O)=O)c(F)c3)c(C(=O)O)[nH]c12 (stereo not drawn) [IC-95, 7-(1-((4-(Aminomethyl)piperidine-1-carbonyl)oxy)ethyl)-3-(3-fluoro-4-((methylsulfonyl)methyl)phenyl)-1H-indole-2-carboxylic acid] | 1 to 10 | 0.1 to 1 |  |  |  | > 10 | > 10
0.005 to 0.05 | < 0.005 | < 2.5 | > 6.67 | C[C@@H](OCc1ccc(CN)cc1)c1cccc2c(-c3ccc(CS(C)(=O)=O)c(Cl)c3)c(C(=O)O)[nH]c12 (single isomer, unassigned) [IC-88] | > 10 | 0.1 to 1 |  |  |  | > 10 | 1 to 10

Second part, the compound before the results:

SMILES | fraction unbound at 4 h, 10 μM [2] | fraction unbound at 4 h, 10 μM [3] | half-life at 1 μM [4] [h] | half-life at 1 μM [5] [h] | IC50 (VIM-2) [nM] | IC50 (NDM-1) [nM] | MIC values AB NDM-1 [1] | MIC values EC NDM-1 (Escherichia coli NDM-1) | MIC values EC NDM-7 (Escherichia coli NDM-7) | IC50 (VIM-1) [nM] | IC50 (IMP-1) [nM]
C[C@@H](c1cccc2c(-c3c(F)cc(NS(C)(=O)=O)cc3F)c(C(=O)O)[nH]c12)n1cc(CN2CC(N)C2)oc1=O [IC-51, 7-[(1S)-1-{5-[(3-Aminoazetidin-1-yl)methyl]-2-oxo-2,3-dihydro-1,3-oxazol-3-yl}ethyl]-3-(2,6-difluoro-4-methanesulfonamidophenyl)-1H-indole-2-carboxylic acid] | 0.05 to 0.25 | 0.005 to 0.05 |  |  | 1 to 10 | 1 to 10 | C (C = MIC values > 8) | C (C = MIC values > 8) | B (B MIC values 2 ÷ 8) | > 10 | > 10
C[C@@H](c1cccc2c(-c3ccc(CS(C)(=N)=O)c(F)c3)c(C(=O)O)[nH]c12)N1C[C@]2(C[C@@H](CN)C2)OC1=O (stereo partly drawn) [IC-19, 7-((1S)-1-(2-(aminomethyl)-6-oxo-5-oxa-7-azaspiro[3.4]octan-7-yl)ethyl)-3-(3-fluoro-4-((S-methylsulfonimidoyl)methyl)phenyl)-1H-indole-2-carboxylic acid] | > 0.25 | 0.05 to 0.25 |  |  | 0.1 to 1 | < 0.1 | B (B MIC values 2 ÷ 8) | B (B MIC values 2 ÷ 8) | A (A = MIC values ≤ 1) | 0.1 to 1 | > 10
C[C@@H](c1cccc2c(-c3ccc(NS(=O)(=O)C4COC4)c(F)c3)c(C(=O)O)[nH]c12)N1C[C@]2(C[C@@H](CN)C2)OC1=O [IC-24, 7-((S)-1-((2S,4r)-2-(aminomethyl)-6-oxo-5-oxa-7-azaspiro[3.4]octan-7-yl)ethyl)-3-(3-fluoro-4-(oxetane-3-sulfonamido)phenyl)-1H-indole-2-carboxylic acid] | 0.05 to 0.25 | 0.05 to 0.25 |  |  | 0.1 to 1 | < 0.1 | B (B MIC values 2 ÷ 8) | A (A = MIC values ≤ 1) | A (A = MIC values ≤ 1) | 1 to 10 | > 10
C[C@@H](c1cccc2c(-c3c(F)cc(NS(C)(=O)=O)cc3F)c(C(=O)O)[nH]c12)N1C[C@]2(C[C@@H](CN)C2)OC1=O [IC-21, 7-((S)-1-((2S,4r)-2-(aminomethyl)-6-oxo-5-oxa-7-azaspiro[3.4]octan-7-yl)ethyl)-3-(2,6-difluoro-4-(methylsulfonamido)phenyl)-1H-indole-2-carboxylic acid] | 0.05 to 0.25 | 0.005 to 0.05 |  |  | 1 to 10 | 1 to 10 | C (C = MIC values > 8) | C (C = MIC values > 8) | B (B MIC values 2 ÷ 8) | > 10 | > 10
C[C@@H](c1cccc2c(-c3ccc4c(c3)CNC4=O)c(C(=O)O)[nH]c12)N1C[C@]2(C[C@@H](CN)C2)OC1=O [IC-22, 7-((S)-1-((2R,4s)-2-(aminomethyl)-6-oxo-5-oxa-7-azaspiro[3.4]octan-7-yl)ethyl)-3-(1-oxoisoindolin-5-yl)-1H-indole-2-carboxylic acid] | 0.05 to 0.25 | 0.005 to 0.05 |  |  | < 0.1 | 0.1 to 1 | B (B MIC values 2 ÷ 8) | A (A = MIC values ≤ 1) | A (A = MIC values ≤ 1) | 1 to 10 | > 10
C[C@@H](c1cccc2c(-c3ccc(CS(C)(=O)=O)c(F)c3)c(C(=O)O)[nH]c12)n1cc(CN2CC(C)(N)C2)oc1=O [IC-68, (S)-7-(1-(5-((3-amino-3-methylazetidin-1-yl)methyl)-2-oxooxazol-3(2H)-yl)ethyl)-3-(3-fluoro-4-((methylsulfonyl)methyl)phenyl)-1H-indole-2-carboxylic acid] |  |  | > 6.67 | > 6.67 | 0.1 to 1 | < 0.1 | B (B MIC values 2 ÷ 8) | A (A = MIC values ≤ 1) | A (A = MIC values ≤ 1) | 1 to 10 | > 10

Source: patent US20240246913A1, “2-CARBOXYL-INDOLE INHIBITORS OF METALLO-BETA-LACTAMASES” (Oxford University Innovation Limited, priority 2021, published 2024)
